Test results: US11076594B2, “Pyrazolone compound or salt thereof, preparation method therefor, herbicide composition and use thereof” (QINGDAO KINGAGROOT CHEMICAL COMPOUNDS CO., LTD., priority 2015, dated 2021)

Legend:
Format in all cases: in vivo
rice = experiment: post-emergence stage experiment, crop (Table 1); conditions: post-emergence spray at 4-5 leaf stage, 250 g/ha active ingredient with 450 kg/ha water, rated after 3 weeks in greenhouse
How it was run: (§1)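 Weeds and crops grown in soil-filled pots in a greenhouse were sprayed at the 4-5 leaf stage (2-3 weeks after sowing). Compounds were applied in acetone with tween 80, diluted in water. After 3 weeks' culture, growth control was scored as fresh weight control rate.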

rice (japonica rice) = experiment: transplanted rice safety evaluation; conditions: 125 g/ha ai; treated 5 days after transplantation; 21 days after treatment
Procedure: The activity level standard of harmful plant destruction (i.e. growth control rate) is as follows: In addition, the rice field soil that loaded into the 1/1,000,000 ha pot was leveled to keep water storage at 3-4 cm depth. The 3 leaf stage rice (japonica rice) was transplanted at 3 cm of transplanting depth the next day. The compound of the present invention was treated by the same way after 5 days of transplantation. The fertility condition of echinochloa, scirpus juncoides, bidens tripartite and sagittaria trifolia 14 days after the treatment of the compound of the invention and the fertility condition of rice 21 days after the treatment of the compound of the invention respectively with the naked eye.

wheat [1] = experiment: post-emergence stage experiment, crop (Table 1); conditions: post-emergence spray at 4-5 leaf stage, 250 g/ha active ingredient with 450 kg/ha water, rated after 3 weeks in greenhouse
How it was run: as §1

crab grass = experiment: weed control effect in post-emergence stage (Table 1); design: key: Level 10: completely dead; Level 9: above 95% growth control rate; Level 8: above 90% growth control rate; Level 7: above 80% growth control rate; Level 6: above 70% growth control rate; Level 5: above 60% growth control rate; Level 4: above 50% growth control rate; Level 3: above 20% growth control rate; Level 2: 5%-20% growth control rate; Level 1: below 5% growth control rate; conditions: post-emergence spray at 4-5 leaf stage, 250 g/ha active ingredient with 450 kg/ha water, rated after 3 weeks in greenhouse
How it was run: as §1

bidens bipinnata = experiment: as above; design: key: Level 10: completely dead; Level 9: above 95% growth control rate; Level 8: above 90% growth control rate; Level 7: above 80% growth control rate; Level 6: above 70% growth control rate; Level 5: above 60% growth control rate; Level 4: above 50% growth control rate; Level 3: above 20% growth control rate; Level 2: 5%-20% growth control rate; Level 1: below 5% growth control rate; conditions: post-emergence spray at 4-5 leaf stage, 250 g/ha active ingredient with 450 kg/ha water, rated after 3 weeks in greenhouse
How it was run: as §1

rorippa indica = experiment: as above; design: key: Level 10: completely dead; Level 9: above 95% growth control rate; Level 8: above 90% growth control rate; Level 7: above 80% growth control rate; Level 6: above 70% growth control rate; Level 5: above 60% growth control rate; Level 4: above 50% growth control rate; Level 3: above 20% growth control rate; Level 2: 5%-20% growth control rate; Level 1: below 5% growth control rate; conditions: post-emergence spray at 4-5 leaf stage, 250 g/ha active ingredient with 450 kg/ha water, rated after 3 weeks in greenhouse
How it was run: as §1

foxtail = experiment: as above; design: key: Level 10: completely dead; Level 9: above 95% growth control rate; Level 8: above 90% growth control rate; Level 7: above 80% growth control rate; Level 6: above 70% growth control rate; Level 5: above 60% growth control rate; Level 4: above 50% growth control rate; Level 3: above 20% growth control rate; Level 2: 5%-20% growth control rate; Level 1: below 5% growth control rate; conditions: post-emergence spray at 4-5 leaf stage, 250 g/ha active ingredient with 450 kg/ha water, rated after 3 weeks in greenhouse
How it was run: as §1

echinochloa [2] = experiment: as above; design: key: Level 10: completely dead; Level 9: above 95% growth control rate; Level 8: above 90% growth control rate; Level 7: above 80% growth control rate; Level 6: above 70% growth control rate; Level 5: above 60% growth control rate; Level 4: above 50% growth control rate; Level 3: above 20% growth control rate; Level 2: 5%-20% growth control rate; Level 1: below 5% growth control rate; conditions: post-emergence spray at 4-5 leaf stage, 250 g/ha active ingredient with 450 kg/ha water, rated after 3 weeks in greenhouse
How it was run: as §1

Indian mallow = experiment: as above; design: key: Level 10: completely dead; Level 9: above 95% growth control rate; Level 8: above 90% growth control rate; Level 7: above 80% growth control rate; Level 6: above 70% growth control rate; Level 5: above 60% growth control rate; Level 4: above 50% growth control rate; Level 3: above 20% growth control rate; Level 2: 5%-20% growth control rate; Level 1: below 5% growth control rate; conditions: post-emergence spray at 4-5 leaf stage, 250 g/ha active ingredient with 450 kg/ha water, rated after 3 weeks in greenhouse
How it was run: as §1

sagittaria trifolia = experiment: weed control effect evaluation in rice field; design: key: Level 10: completely dead; Level 9: above 95% growth control rate; Level 8: above 90% growth control rate; Level 7: above 80% growth control rate; Level 6: above 70% growth control rate; Level 5: above 60% growth control rate; Level 4: above 50% growth control rate; Level 3: above 20% growth control rate; Level 2: 5%-20% growth control rate; Level 1: below 5% growth control rate; conditions: 125 g/ha ai; rice field pot; 14 days after treatment; resistant to pyrazosulfuron-ethyl
Excerpt: (§2) The activity level standard of harmful plant destruction (i.e. growth control rate) is as follows: Rice field soil was loaded into a 1/1,000,000 ha pot. The seeds of echinochloa, scirpus juncoides, bidens tripartite and sagittaria trifolia were sowed and gently covered with soil, then left to stand still in greenhouse in the state of 0.5-1 cm of water storage. The tuber of sagittaria trifolia was planted in the next day or 2 days later. It was kept at 3-4 cm of water storage thereafter. The weeds were treated by dripping the WP or SC water diluents prepared according to the common preparation method of the compounds of the present invention with pipette homogeneously to achieve specified effective amount when echinochloa, scirpus juncoides and bidens tripartite reached 0.5 leaf stage and sagittaria trifolia reached the time point of primary leaf stage. The fertility condition of echinochloa, scirpus juncoides, bidens tripartite and sagittaria trifolia 14 days after the treatment of the compound of the invention and the fertility condition of rice 21 days after the treatment of the compound of the invention respectively with the naked eye.

bidens tripartite = experiment: weed control effect evaluation in rice field; design: key: Level 10: completely dead; Level 9: above 95% growth control rate; Level 8: above 90% growth control rate; Level 7: above 80% growth control rate; Level 6: above 70% growth control rate; Level 5: above 60% growth control rate; Level 4: above 50% growth control rate; Level 3: above 20% growth control rate; Level 2: 5%-20% growth control rate; Level 1: below 5% growth control rate; conditions: 125 g/ha ai; rice field pot; 14 days after treatment; resistant to pyrazosulfuron-ethyl
Excerpt: as §2

echinochloa [3] = experiment: weed control effect evaluation in rice field; design: key: Level 10: completely dead; Level 9: above 95% growth control rate; Level 8: above 90% growth control rate; Level 7: above 80% growth control rate; Level 6: above 70% growth control rate; Level 5: above 60% growth control rate; Level 4: above 50% growth control rate; Level 3: above 20% growth control rate; Level 2: 5%-20% growth control rate; Level 1: below 5% growth control rate; conditions: 125 g/ha ai; rice field pot; 14 days after treatment; resistant to pyrazosulfuron-ethyl
Excerpt: as §2

scirpus juncoides = experiment: weed control effect evaluation in rice field; design: key: Level 10: completely dead; Level 9: above 95% growth control rate; Level 8: above 90% growth control rate; Level 7: above 80% growth control rate; Level 6: above 70% growth control rate; Level 5: above 60% growth control rate; Level 4: above 50% growth control rate; Level 3: above 20% growth control rate; Level 2: 5%-20% growth control rate; Level 1: below 5% growth control rate; conditions: 125 g/ha ai; rice field pot; 14 days after treatment; resistant to pyrazosulfuron-ethyl
Excerpt: as §2

alopecurus japonicas = experiment: wheat field resistant weed control, greenhouse spray at 4 leaf stage; design: key: Level 10: completely dead; Level 9: above 95% growth control rate; Level 8: above 90% growth control rate; Level 7: above 80% growth control rate; Level 6: above 70% growth control rate; Level 5: above 60% growth control rate; Level 4: above 50% growth control rate; Level 3: above 20% growth control rate; Level 2: 5%-20% growth control rate; Level 1: below 5% growth control rate; conditions: sprayed at 4 leaf stage, 4 weeks after treatment, resistant to ALS and ACCase inhibitor herbicides
How it was run: (§3)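 Potted plants grown in greenhouse were sprayed at the 4 leaf stage, 2–3 weeks post-sowing, with compound in acetone plus methyl oleate emulsion diluted in water. After 4 weeks of further greenhouse culture, growth control was scored as fresh weight control rate.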

corn = experiment: post-emergence stage experiment, crop (Table 1); conditions: post-emergence spray at 4-5 leaf stage, 250 g/ha active ingredient with 450 kg/ha water, rated after 3 weeks in greenhouse
How it was run: as §1

wheat [4] = experiment: wheat field test, crop selectivity, greenhouse spray at 4 leaf stage; conditions: 4 weeks after treatment
How it was run: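 After sowing in pots under 0.5-2 cm soil, plants grow to the 4 leaf stage and receive a spray of compound formulated in acetone, methyl oleate emulsion and water. Four weeks later in the greenhouse, the fresh weight control rate gives the growth control rate.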

flixweed = experiment: wheat field resistant broadleaf weed control, greenhouse spray at 4 leaf stage; design: key: Level 10: completely dead; Level 9: above 95% growth control rate; Level 8: above 90% growth control rate; Level 7: above 80% growth control rate; Level 6: above 70% growth control rate; Level 5: above 60% growth control rate; Level 4: above 50% growth control rate; Level 3: above 20% growth control rate; Level 2: 5%-20% growth control rate; Level 1: below 5% growth control rate; conditions: 250 g/ha of the active substance; 4 weeks after treatment; ALS inhibitor resistant
How it was run: as §3

corn gromwell = experiment: as above; design: key: Level 10: completely dead; Level 9: above 95% growth control rate; Level 8: above 90% growth control rate; Level 7: above 80% growth control rate; Level 6: above 70% growth control rate; Level 5: above 60% growth control rate; Level 4: above 50% growth control rate; Level 3: above 20% growth control rate; Level 2: 5%-20% growth control rate; Level 1: below 5% growth control rate; conditions: 250 g/ha of the active substance; 4 weeks after treatment; ALS inhibitor resistant
How it was run: as §3

chickweed = experiment: as above; design: key: Level 10: completely dead; Level 9: above 95% growth control rate; Level 8: above 90% growth control rate; Level 7: above 80% growth control rate; Level 6: above 70% growth control rate; Level 5: above 60% growth control rate; Level 4: above 50% growth control rate; Level 3: above 20% growth control rate; Level 2: 5%-20% growth control rate; Level 1: below 5% growth control rate; conditions: 250 g/ha of the active substance; 4 weeks after treatment; ALS inhibitor resistant
How it was run: as §3

shepherd's purse = experiment: as above; design: key: Level 10: completely dead; Level 9: above 95% growth control rate; Level 8: above 90% growth control rate; Level 7: above 80% growth control rate; Level 6: above 70% growth control rate; Level 5: above 60% growth control rate; Level 4: above 50% growth control rate; Level 3: above 20% growth control rate; Level 2: 5%-20% growth control rate; Level 1: below 5% growth control rate; conditions: 250 g/ha of the active substance; 4 weeks after treatment; ALS inhibitor resistant
How it was run: as §3

Structure (SMILES): Cc1nn(C)c(O)c1C(=O)c1ccc(C(F)(F)F)c(N)c1Cl [Compound 001]
- effect on crop, Rice (level) (rice): 4 (Level 4: above 50% growth control rate)
- Rice (activity level, transplanted rice safety) (rice (japonica rice)): 0
- effect on crop, Wheat (level) (wheat [1]): 0
- weed control effect, Crab grass (level) (crab grass): 1 (Level 1: below 5% growth control rate)
- weed control effect, Bidens bipinnata (level) (bidens bipinnata): 8 (Level 8: above 90% growth control rate)
- weed control effect, Rorippa indica (level) (rorippa indica): 9 (Level 9: above 95% growth control rate)
- weed control effect, Green foxtail (level) (foxtail): 6 (Level 6: above 70% growth control rate)
- weed control effect, Echinochloa (level) (echinochloa [2]): 6 (Level 6: above 70% growth control rate)
- weed control effect, Indian mallow (level) (Indian mallow): 9 (Level 9: above 95% growth control rate)
- Sagittaria trifolia weed control effect (activity level) (sagittaria trifolia): 9 (Level 9: above 95% growth control rate)
- Bidens tripartite weed control effect (activity level) (bidens tripartite): 8 (Level 8: above 90% growth control rate)
- Echinochloa weed control effect (activity level) (echinochloa [3]): 10
- Scirpus juncoides weed control effect (activity level) (scirpus juncoides): 10

Structure (SMILES): CCOc1c(C(=O)Oc2c(C(=O)c3ccc(C(F)(F)F)c(N4CCCCC4=O)c3Cl)c(C3CC3)nn2C)cnn1C [Compound 048]
- Alopecurus japonicas weed controlling effect (activity level) (alopecurus japonicas; 1 g/mu): 8 (Level 8: above 90% growth control rate)
- Alopecurus japonicas weed controlling effect (activity level) (alopecurus japonicas; 2 g/mu): 10
- Alopecurus japonicas weed controlling effect (activity level) (alopecurus japonicas; 4 g/mu): 10
- Alopecurus japonicas weed controlling effect (activity level) (alopecurus japonicas; 8 g/mu): 10
- effect on crop, Rice (level) (rice): 5 (Level 5: above 60% growth control rate)
- effect on crop, Corn (level) (corn): 3 (Level 3: above 20% growth control rate)
- effect on crop, Wheat (level) (wheat [1]): 1 (Level 1: below 5% growth control rate)
- Wheat (activity level, crop damage) (wheat [4]; 2 g/mu, sprayed at 4 leaf stage): 0
- Wheat (activity level, crop damage) (wheat [4]; 4 g/mu, sprayed at 4 leaf stage): 0
- Wheat (activity level, crop damage) (wheat [4]; 8 g/mu, sprayed at 4 leaf stage): 0
- Wheat (activity level, crop damage) (wheat [4]; 16 g/mu, sprayed at 4 leaf stage): 1 (Level 1: below 5% growth control rate)
- Wheat (activity level, crop damage) (wheat [4]; 32 g/mu, sprayed at 4 leaf stage): 4 (Level 4: above 50% growth control rate)
- Wheat (activity level, crop damage) (wheat [4]; 250 g/ha of the active substance): 0
- weed control effect, Crab grass (level) (crab grass): 7 (Level 7: above 80% growth control rate)
- weed control effect, Bidens bipinnata (level) (bidens bipinnata): 4 (Level 4: above 50% growth control rate)
- weed control effect, Rorippa indica (level) (rorippa indica): 10
- weed control effect, Green foxtail (level) (foxtail): 8 (Level 8: above 90% growth control rate)
- weed control effect, Echinochloa (level) (echinochloa [2]): 6 (Level 6: above 70% growth control rate)
- weed control effect, Indian mallow (level) (Indian mallow): 10
- flixweed weed controlling effect (activity level) (flixweed): 10
- corn gromwell weed controlling effect (activity level) (corn gromwell): 10
- chickweed weed controlling effect (activity level) (chickweed): 10
- shepherd's purse weed controlling effect (activity level) (shepherd's purse): 10
